What was measured:
Format in all cases: protein-complex assay
[1] = biological target: CDK6/cyclin D1 (Homo sapiens, UniProt P24385+Q00534); assay: (§1) Inhibition of CDK6/Cyclin D1 by FRET assay
[2] = biological target: Cyclin-dependent kinase 4/cyclin D1 (Homo sapiens, UniProt P11802); assay: Inhibition of CDK4/Cyclin D1 by FRET assay
[3] = biological target: CDK6/cyclin D1 (Homo sapiens, UniProt Q00534); assay: as §1
CDK6/cyclin D1 (Homo sapiens, UniProt Q00534), sequence (P24385 whole entry): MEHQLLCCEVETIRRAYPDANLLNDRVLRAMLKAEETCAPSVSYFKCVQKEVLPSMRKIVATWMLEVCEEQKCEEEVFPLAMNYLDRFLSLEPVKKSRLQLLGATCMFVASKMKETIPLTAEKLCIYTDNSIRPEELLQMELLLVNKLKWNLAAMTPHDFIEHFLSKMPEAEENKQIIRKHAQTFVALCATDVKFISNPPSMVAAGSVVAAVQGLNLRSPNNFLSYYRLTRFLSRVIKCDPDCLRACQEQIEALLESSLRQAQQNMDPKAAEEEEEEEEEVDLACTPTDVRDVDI
CDK6/cyclin D1 (Homo sapiens, UniProt Q00534), sequence (Q00534 whole entry): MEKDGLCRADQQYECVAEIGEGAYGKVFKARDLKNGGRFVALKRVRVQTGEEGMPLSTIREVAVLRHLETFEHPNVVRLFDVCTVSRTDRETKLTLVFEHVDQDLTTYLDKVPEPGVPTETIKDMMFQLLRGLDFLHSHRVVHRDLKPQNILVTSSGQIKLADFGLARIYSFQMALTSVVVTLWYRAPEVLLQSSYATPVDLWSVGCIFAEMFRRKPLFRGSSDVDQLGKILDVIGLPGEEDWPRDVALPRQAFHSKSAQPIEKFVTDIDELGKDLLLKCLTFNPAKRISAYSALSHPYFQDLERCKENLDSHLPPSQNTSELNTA

Cyclin-dependent kinase 4/cyclin D1, sequence (P11802 whole entry): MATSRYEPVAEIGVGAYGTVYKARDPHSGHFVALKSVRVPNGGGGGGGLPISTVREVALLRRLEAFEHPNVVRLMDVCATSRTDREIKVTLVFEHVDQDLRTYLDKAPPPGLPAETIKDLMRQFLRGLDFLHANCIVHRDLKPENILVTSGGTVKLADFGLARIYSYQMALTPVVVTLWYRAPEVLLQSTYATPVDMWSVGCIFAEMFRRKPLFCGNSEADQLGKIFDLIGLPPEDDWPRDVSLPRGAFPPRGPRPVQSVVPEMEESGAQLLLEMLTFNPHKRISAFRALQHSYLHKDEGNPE
Cyclin-dependent kinase 4/cyclin D1, sequence (P24385 whole entry, further chain): as the sequence (P24385 whole entry) above
CDK6/cyclin D1 (Homo sapiens, UniProt P24385+Q00534), sequence (P24385 whole entry): as above
CDK6/cyclin D1 (Homo sapiens, UniProt P24385+Q00534), sequence (Q00534 whole entry): as the sequence (Q00534 whole entry) above

| IC50 [1] | IC50 [2] [µM] | IC50 [3] [µM] | Structure (SMILES) |
| --- | --- | --- | --- |
| Not Active | 128 |  | COc1cc(NCCN(CC(C)C)CC(C)C)c2ncc(C)cc2c1 |
|  | 162 | 325 | COc1cc(NCCCN(CCC(C)C)CCC(C)C)c2ncccc2c1 |

Reference: ChEMBL document CHEMBL1153127, “p16(INK4a) Peptide mimetics identified via virtual screening” (Bioorg Med Chem Lett, 2010)
